Earlier results as cited in patent US8247562B2, “Benzamide derivatives useful as histone deacetylase inhibitors” (Astrazeneca AB, priority 2002, dated 2012).

Experiments:
[1] = system: rat fibroblasts; details: Yoshida et al, Exper. Cell Res., 177, 122-131 (1988)
[2] = system: tumours in mice; details: Finnin et al., Nature, 401, 188-193 (1999)

In the case of CC(/C=C/C(=O)NO)=C\[C@@H](C)C(=O)c1ccc(N(C)C)cc1 [Trichostatin A], the cell cycle arrest [1] is given as “arrest of rat fibroblasts at the G1 and G2 phases of the cell cycle” and the formation of tumours [2] is given as “prevent the formation of tumours in mice”.
